The values below are quoted from earlier work in article PMC11975549, “Development of Potent Type V MAPK Inhibitors: Design, Synthesis, and Biological Evaluation of Benzothiazole Derivatives Targeting p38α MAPK in Breast Cancer Cells” (Archiv Der Pharmazie, 2025).

For one data set, the system named is normal prostate cells. Further details: method as in PMID 31838901. Conditions: cited from earlier work.
The subject of the next data set is prostate cancer cells. More on the design: method as in PMID 31838901. Conditions: cited from earlier work.
In data set [1] the test system is p38α MAPK. More on the design: method as in PMID 34328852. The conditions noted are these: HeLa cells, compared with the control anisomycin (30 μM); cited from earlier work.
A further data set has as its system HeLa cells. More on the design: method as in PMID 34328852. The conditions noted are these: cited from earlier work.
The subject of data set [2] is p38α MAPK. Further details: method as in PMID 34894967. Conditions: MCF‐7 cells; cited from earlier work.

Read-outs that look alike come from different tables or passages of the source.

As for `COc1cccc(CNC(=O)c2ccc(N3CCOCC3)c(NC(=O)Nc3ccc(F)cc3F)c2)c1` [Compound 5e], in the data set on normal prostate cells, the “damage to normal prostate cells” value was “without causing considerable damage”. Also, the “viability, proliferation and migration of prostate cancer cells” value in the data set on prostate cancer cells was “inhibited the viability and reduced the proliferation and migration”.

As to `O=c1oc2ccccc2c(O)c1C1=CC(c2ccc(F)cc2)NC(=S)N1` (stereo not drawn) [Compound 7g], in the data set with p38α MAPK [1], the “suppression of p38α MAPK activation” value is 0.64. For the same compound, the “reduction in cell viability” value with HeLa cells (10 μM) is 80%; in the data set on HeLa cells (30 μM) it was 72%.

Take `Cc1ccc(C(=O)/C=C/c2ccc(Oc3ccc(Br)cc3)cc2)cc1` [Compound 10j]: the “total p38α MAPK and phosphorylated enzyme levels” value in the data set with p38α MAPK [2] is “reduced”.
